Measurements: patent US20200377568A1, “Novel IL-4-/IL-13-derived peptide compounds for the treatment or prevention of neurodegenerative or neuroinflammatory diseases” (Universitätsmedizin der Johannes Gutenberg-Universität Mainz, priority 2018, published 2020)

Tests used:
[1] = test system: immune cells isolated from spleen; assay: FACS of immune cells from spleen of EAE mice after nasal treatment; type: in vivo, mouse; conditions: intranasal treatment of EAE mice
Protocol: (§1) A-B: Effects of incubation with IL-4 and different concentrations of Link4 and Link13 on the differentiation of A: CD11b^+ bone marrow-derived macrophages (BMDMs) into F80^+CD206^+ cells, and B: CD4^+ T cells into Gata3^+ cells. C-D: FACS results for different populations of T cells and CD11b^+MHCII^+ monocytes/macrophages/microglia of immune cells isolated from C: spleen and D: central nervous system (CNS) of EAE mice treated with PBS, IL-4 or Link4.
Subsequently, the effects of IL-4 and Link4 on immune cells were analysed when applied intranasally, similarly as in FIG. 3B. Since nasally applied treatments can enter the periphery (lungs, blood stream) it was of utmost importance to check whether the substances affected the lymphocyte populations in the spleen. A reduction was found of CD8^+ cytotoxic T-cells for Link4, whereas all CD4^+ T helper cell types were unchanged. The CD11 b+MHCII+ population of monocytes/macrophages was also not changed.
CNS and spleens were removed from EAE mice treated with nasal IL-4, Link4 or PBS at d35 and immune cells were isolated as previously described (M. Paterka, J. O. Voss, J. Werr, E. Reuter, S. Franck, T. Leuenberger, J. Herz, H. Radbruch, T. Bopp, V. Siffrin, and F. Zipp, Dendritic cells tip the balance towards induction of regulatory T cells upon priming in experimental autoimmune encephalomyelitis. J Autoimmun 67, 108-114 (2017)). For in vitro stimulation of T cells, anti-CD3 (145-2C11) and anti-CD28 (37.51) were used. The following antibodies were used for flow cytometry with the BD FACSCanto II (BD Bioscience): anti-CD4 PEcγ7 (RM4-5), anti-CD8 FITC (53-6.7), anti-CD3APC (145-2c11), anti-CD11 b bio (M1/70), anti-MHCII PE (AF6-120.1), anti-CD11 b V450 (HL311B), anti-CD45 AF605 (30-F11), anti-GM-CSF PE (MP1-22E9), anti-IL17 APC (eBio17B7), anti-TNFα AF700 (MP6-XT22), anti-IFN-γV450 (XMG1.2), anti-GATA-3 PE (TWAZ), anti-FOXP3 PEcy7(FZK-16s), anti-IL-10 APC (JESS-16E3), anti-CD4 V450 (RM4-5). All antibodies were purchased from eBioscience or Biolegend.

[2] = test system: hippocampal cell line HT22; assay: CellTiter-blue cell viability assay (ctb), hippocampal cell line; type: cell-based; conditions: HT22 cells, increasing concentrations, FIG. 2B
Protocol: (§2) Toxicity was checked by subjecting mouse embryonic fibroblasts (Mef) and the hippocampal cell line HT22 to a CellTiter-blue cell viability assay (ctb).
(§3) Mouse embryonic fibroblasts (Mef) (Sigma-Aldrich) and hippocampal HT22 (ThermoScientific) cells were cultured according to the manufacturer's protocols. Ctb assays were performed according to the manufacturer's protocols (Promega).

[3] = test system: mouse embryonic fibroblasts (Mef); assay: CellTiter-blue cell viability assay (ctb), fibroblasts; type: cell-based; conditions: Mef cells, increasing concentrations, FIG. 2A
Protocol: as §2, §3

[4] = test system: CD11b+ bone marrow-derived macrophages (BMDMs); assay: Differentiation of bone marrow-derived macrophages; type: cell-based, mouse; conditions: different concentrations, FIG. 4A
Protocol: as §1
In order to investigate whether Link4 and Link13 are able to modulate immune cells, in vitro assays were performed on bone marrow-derived macrophages (BDMBs) and on naïve T cells.
Murine BMDMs were isolated from adult C57BL/6 mice. The tibia and femur bones were flushed with sterile PBS and the bone marrow was collected in washing medium. After filtering the cell suspension trough a 100 μm nylon mesh, the cells were centrifuged (5 min, 550 g, 4° C.) and resuspended in mouse medium (10% FCS, 1% P/S, 1% L-glutamine, 0.1% β-mercaptoethanol, 1% HEPES in RPMI buffer). For the in vitro generation of BMDMs cells were plated in 6 well-plates and exposed to 20 ng/ml Macrophage […] (M-CSF) for 4 days. For the activation of the cells, Dexametason (5×10^−7M), LPS (10 μg/ml) and IL-4 (10 ng/ml) were added to the culture for the following 3 days.

Question: With “RARSEIIGIGSKSIMQMDY (listed as Mus musculus) [Link4]” as the sequence, how does the “CD4+ T helper cell types” value [1] read?
Answer: unchanged

Question: What about the “CD8+ cytotoxic T-cells” value [1] of the same sequence?
Answer: reduction

Question: What about the “CD11b+MHCII+ population of monocytes/macrophages” value [1] of the same sequence?
Answer: not changed

Question: What about the “toxic effects on hippocampal neurons (cell viability)” value [2] of the same sequence?
Answer: no toxic effects

Question: What about the “toxic effects on fibroblasts (cell viability)” value [3] of the same sequence?
Answer: no toxic effects

Question: What about the “differentiation of CD11b+ BMDMs into F80+CD206+ cells” value [4] of the same sequence?
Answer: did not occur
